Read-outs that look alike come from different tables or passages of the source.
Molecular target: recombinant Mcl-1 (residues 172-327) (Homo sapiens (Human), UniProt Q07820)
Test: Fluorescence polarization anisotropy competition assay (FITC-Bak or FITC-Bim BH3 peptide) with Mcl-1
Format: binding
[1] = Table 2, Ki bins given in nM, FITC-Bak or FITC-Bim peptide competition, Ki converted from IC50, read-out: Ki for Inhibition of Mcl-1

recombinant Mcl-1 (residues 172-327), sequence (Q07820 172-327): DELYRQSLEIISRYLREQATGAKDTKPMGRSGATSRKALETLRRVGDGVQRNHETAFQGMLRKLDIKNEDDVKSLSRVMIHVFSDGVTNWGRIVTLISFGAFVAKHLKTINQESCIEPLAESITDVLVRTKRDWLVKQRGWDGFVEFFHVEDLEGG

Row | SMILES | Ki [1] [nM] | other results
1 | Cc1cc(OCCCc2c3n(c4c(-c5c(C)nn(C)c5C)c(Cl)ccc24)CCCN(C2SC(=O)NC2C(=O)O)C3=O)cc(C)c1Cl (stereo not drawn) [I-346, 5-(8-chloro-11-(3-(4-chloro-3,5-dimethylphenoxy)propyl)-1-oxo-7-(1,3,5-trimethyl-1H-pyrazol-4-yl)-4,5-dihydro-1H-[1,4]diazepino[1,2-a]indol-2(3H)-yl)-2-oxothiazolidine-4-carboxylic acid] | < 50 | –
2 | Cc1cc(OCCCc2c3n(c4c(-c5c(C)nn(C)c5C)c(Cl)ccc24)[C@H](C)CN(c2cc(C(=O)O)cc4c2ccn4C)C3=O)cc(C)c1Cl [I-170, (R)-4-(7-chloro-10-(3-(4-chloro-3,5-dimethylphenoxy)propyl)-4-methyl-1-oxo-6-(1,3,5-trimethyl-1H-pyrazol-4-yl)-3,4-dihydropyrazino[1,2-a]indol-2(1H)-yl)-1-methyl-1H-indole-6-carboxylic acid] | < 50 | –
3 | Cc1cc(OCCCc2c(C(=O)NCC(=O)O)[nH]c3ccccc23)cc(C)c1Cl [I-3, (3-(3-(4-chloro-3,5-dimethylphenoxy)propyl)-1H-indole-2-carbonyl)glycine] | – | Ki: 501 to 999 nM
4 | Cc1cc(OCCCc2c3n(c4c(-c5c(C)nn(C)c5C)cccc24)CCCN(Cc2cc(C(=O)O)n(C)c2)C3=O)cc(C)c1Cl [I-79, 4-((11-(3-(4-chloro-3,5-dimethylphenoxy)propyl)-1-oxo-7-(1,3,5-trimethyl-1H-pyrazol-4-yl)-4,5-dihydro-1H-[1,4]diazepino[1,2-a]indol-2(3H)-yl)methyl)-1-methyl-1H-pyrrole-2-carboxylic acid] | 51 to 100 | –
5 | COC(=O)c1cccc(CNC(=O)c2[nH]c3c(-c4c(C)n[nH]c4C)cccc3c2CCCOc2cc(C)c(Cl)c(C)c2)c1 [I-25, methyl 3-((3-(3-(4-chloro-3,5-dimethylphenoxy)propyl)-7-(3,5-dimethyl-1H-pyrazol-4-yl)-1H-indole-2-carboxamido)methyl)benzoate] | 301 to 500 | –
6 | Cc1cc(OCCCc2c3n(c4c(-c5c(C)nn(C)c5C)c(Cl)ccc24)C[C@@H](C)N(c2cc(C(=O)O)cc4c2ccn4C)C3=O)cc(C)c1Cl [I-159, (R)-4-(7-chloro-10-(3-(4-chloro-3,5-dimethylphenoxy)propyl)-3-methyl-1-oxo-6-(1,3,5-trimethyl-1H-pyrazol-4-yl)-3,4-dihydropyrazino[1,2-a]indol-2(1H)-yl)-1-methyl-1H-indole-6-carboxylic acid] | < 50 | –
7 | Cc1cc(OCCCc2c(C(=O)NCc3cccn3CC(=O)O)[nH]c3c(-c4c(C)nn(C)c4C)cccc23)cc(C)c1Cl [I-89, 2-(2-((3-(3-(4-chloro-3,5-dimethylphenoxy)propyl)-7-(1,3,5-trimethyl-1H-pyrazol-4-yl)-1H-indole-2-carboxamido)methyl)-1H-pyrrol-1-yl)acetic acid] | < 50 | –
8 | Cc1cc(OCCCc2c3n(c4c(-c5c(C)nn(C)c5C)c(Cl)ccc24)CCCN(CC(=O)O)C3=O)cc(C)c1Cl [I-304, 2-(8-chloro-11-(3-(4-chloro-3,5-dimethylphenoxy)propyl)-1-oxo-7-(1,3,5-trimethyl-1H-pyrazol-4-yl)-4,5-dihydro-1H-[1,4]diazepino[1,2-a]indol-2(3H)-yl)acetic acid] | < 50 | –
9 | Cc1cc(OCCCc2c3n(c4c(-c5c(C)nn(C)c5C)c(Cl)ccc24)CCCN(c2cccc(OC(F)(F)F)c2)C3=O)cc(C)c1Cl [I-101, 8-chloro-11-(3-(4-chloro-3,5-dimethylphenoxy)propyl)-2-(3-(trifluoromethoxy)phenyl)-7-(1,3,5-trimethyl-1H-pyrazol-4-yl)-2,3,4,5-tetrahydro-1H-[1,4]diazepino[1,2-a]indol-1-one] | 301 to 500 | –
10 | Cc1cc(OCCCc2c3n(c4c(-c5c(C)nn(C)c5C)c(Cl)ccc24)CCCN(c2cc(CN4CCN(C)CC4)cc(C(=O)O)c2)C3=O)cc(C)c1Cl [I-228, 3-(8-chloro-11-(3-(4-chloro-3,5-dimethylphenoxy)propyl)-1-oxo-7-(1,3,5-trimethyl-1H-pyrazol-4-yl)-4,5-dihydro-1H-[1,4]diazepino[1,2-a]indol-2(3H)-yl)-5-((4-methylpiperazin-1-yl)methyl)benzoic acid] | < 50 | –
11 | Cc1cc(OCCCc2c3n(c4c(-c5c(C)nn(C)c5C)c(Cl)ccc24)CCCN(Cc2cc(C(=O)O)c(C)o2)C3=O)cc(C)c1Cl [I-347, 5-((8-chloro-1-(3-(4-chloro-3,5-dimethylphenoxy)propyl)-1-oxo-7-(1,3,5-trimethyl-1H-pyrazol-4-yl)-4,5-dihydro-1H-[1,4]diazepino[1,2-a]indol-2(3H)-yl)methyl)-2-methylfuran-3-carboxylic acid] | < 50 | –
12 | Cc1cc(OCCCc2c3n(c4c(-c5c(C)nn(C)c5C)c(Cl)ccc24)CCCN(c2cc(C(=O)O)cc(C(F)(F)F)c2)C3=O)cc(C)c1Cl [I-222, 3-(8-chloro-11-(3-(4-chloro-3,5-dimethylphenoxy)propyl)-1-oxo-7-(1,3,5-trimethyl-1H-pyrazol-4-yl)-4,5-dihydro-1H-[1,4]diazepino[1,2-a]indol-2(3H)-yl)-5-(trifluoromethyl)benzoic acid] | < 50 | –
13 | Cc1cc(OCCCc2c3n(c4c(-c5c(C)nn(C)c5C)c(Cl)ccc24)CCCN(Cc2cc(C(=O)O)cc(OCCC(C)C)n2)C3=O)cc(C)c1Cl [I-302, 2-((8-chloro-11-(3-(4-chloro-3,5-dimethylphenoxy)propyl)-1-oxo-7-(1,3,5-trimethyl-1H-pyrazol-4-yl)-4,5-dihydro-1H-[1,4]diazepino[1,2-a]indol-2(3H)-yl)methyl)-6-(isopentyloxy)isonicotinic acid] | < 50 | –
14 | Cc1cc(OCCCc2c(C(=O)Nc3cc(NC4CCOCC4)cc(C(=O)O)c3)[nH]c3c(-c4c(C)nn(C)c4C)c(Cl)ccc23)cc(C)c1Cl [I-209, 3-(6-chloro-3-(3-(4-chloro-3,5-dimethylphenoxy)propyl)-7-(1,3,5-trimethyl-1H-pyrazol-4-yl)-1H-indole-2-carboxamido)-5-((tetrahydro-2H-pyran-4-yl)amino)benzoic acid] | < 50 | –
15 | Cc1cc(CNC(=O)c2[nH]c3c(-c4c(C)nn(C)c4C)cccc3c2CCCOc2cc(C)c(Cl)c(C)c2)cc(OC(F)(F)F)c1 [I-265, 3-(3-(4-chloro-3,5-dimethylphenoxy)propyl)-N-(3-methyl-5-(trifluoromethoxy)benzyl)-7-(1,3,5-trimethyl-1H-pyrazol-4-yl)-1H-indole-2-carboxamide] | – | Ki (Table 2, Ki bins given in μM, FITC-Bak or FITC-Bim peptide competition, Ki converted from IC50, read-out: Ki for Inhibition of Mcl-1): 1000 to 9990 nM
16 | Cc1cc(OCCCc2c(C(=O)N[C@H]3CC[C@@H](C(=O)O)C3)[nH]c3c(-c4c(C)nn(C)c4C)c(Cl)ccc23)cc(C)c1Cl [I-330, (1R,3S)-3-(6-chloro-3-(3-(4-chloro-3,5-dimethylphenoxy)propyl)-7-(1,3,5-trimethyl-1H-pyrazol-4-yl)-1H-indole-2-carboxamido)cyclopentane-1-carboxylic acid] | < 50 | –
17 | Cc1cc(OCCCc2c(C(=O)NCC(=O)NS(=O)(=O)C3CC3)[nH]c3ccccc23)cc(C)c1Cl [I-9, 3-(3-(4-chloro-3,5-dimethylphenoxy)propyl)-N-(2-(cyclopropanesulfonamido)-2-oxoethyl)-1H-indole-2-carboxamide] | 501 to 999 | –
18 | Cc1cc(OCCCc2c3n(c4c(-c5c(C)nn(C)c5C)c(Cl)ccc24)[C@H](C)CN(c2cc(C(=O)O)c4ccn(C)c4c2)C3=O)cc(C)c1Cl [I-174, (R)-6-(7-chloro-10-(3-(4-chloro-3,5-dimethylphenoxy)propyl)-4-methyl-1-oxo-6-(1,3,5-trimethyl-1H-pyrazol-4-yl)-3,4-dihydropyrazino[1,2-a]indol-2(1H)-yl)-1-methyl-1H-indole-4-carboxylic acid] | < 50 | –
19 | Cc1cc(OCCCc2c(C(=O)Nc3cccc(CC(=O)O)c3)[nH]c3c(-c4c(C)nn(C)c4C)cccc23)cc(C)c1Cl [I-206, 2-(3-(3-(3-(4-chloro-3,5-dimethylphenoxy)propyl)-7-(1,3,5-trimethyl-1H-pyrazol-4-yl)-1H-indole-2-carboxamido)phenyl)acetic acid] | < 50 | –
20 | Cc1cc(OCCCc2c3n(c4c(-c5c(C)nn(C)c5C)c(Cl)ccc24)CC(C)CN(Cc2cccc(C(=O)O)c2)C3=O)cc(C)c1Cl (stereo not drawn) [I-135, 3-((8-chloro-11-(3-(4-chloro-3,5-dimethylphenoxy)propyl)-4-methyl-1-oxo-7-(1,3,5-trimethyl-1H-pyrazol-4-yl)-4,5-dihydro-1H-[1,4]diazepino[1,2-a]indol-2(3H)-yl)methyl)benzoic acid] | < 50 | –
21 | Cc1cc(OCCCc2c(C(=O)NCc3cc(C(=O)O)cc(NCCC(C)C)n3)[nH]c3c(-c4c(C)nn(C)c4C)c(Cl)ccc23)cc(C)c1Cl [I-283, 2-((6-chloro-3-(3-(4-chloro-3,5-dimethylphenoxy)propyl)-7-(1,3,5-trimethyl-1H-pyrazol-4-yl)-1H-indole-2-carboxamido)methyl)-6-(isopentylamino)isonicotinic acid] | < 50 | –
22 | Cc1cc(OCCCc2c3n(c4c(-c5c(C)nn(C)c5C)c(Cl)ccc24)CCCN(c2cc(C(=O)O)cc4c2OCCO4)C3=O)cc(C)c1Cl [I-364, 8-(8-chloro-11-(3-(4-chloro-3,5-dimethylphenoxy)propyl)-1-oxo-7-(1,3,5-trimethyl-1H-pyrazol-4-yl)-4,5-dihydro-1H-[1,4]diazepino[1,2-a]indol-2(3H)-yl)-2,3-dihydrobenzo[b][1,4]dioxine-6-carboxylic acid] | < 50 | –
23 | Cc1cc(OCCCc2c3n(c4c(-c5c(C)nn(C)c5C)c(Cl)ccc24)CCCN(Cc2cc(C(=O)O)cc(OCCCC(C)C)n2)C3=O)cc(C)c1Cl [I-303, 2-((8-chloro-11-(3-(4-chloro-3,5-dimethylphenoxy)propyl)-1-oxo-7-(1,3,5-trimethyl-1H-pyrazol-4-yl)-4,5-dihydro-1H-[1,4]diazepino[1,2-a]indol-2(3H)-yl)methyl)-6-((4-methylpentyl)oxy)isonicotinic acid] | < 50 | –
24 | Cc1cc(OCCCc2c3n(c4c(-c5c(C)nn(C)c5C)cccc24)CCCN(Cc2cc(C(=O)O)cc(N4CCCC4)c2)C3=O)cc(C)c1Cl [I-84, 3-((11-(3-(4-chloro-3,5-dimethylphenoxy)propyl)-1-oxo-7-(1,3,5-trimethyl-1H-pyrazol-4-yl)-4,5-dihydro-1H-[1,4]diazepino[1,2-a]indol-2(3H)-yl)methyl)-5-(pyrrolidin-1-yl)benzoic acid] | 101 to 299 | –

From patent publication US10533010B2, “Substituted indole Mcl-1 inhibitors” (Vanderbilt University, priority 2014, dated 2020)
